Here are results for nine compounds from article PMC5076529, “Binding Sites for Acylated Trehalose Analogs of Glycolipid Ligands on an Extended Carbohydrate Recognition Domain of the Macrophage Receptor Mincle” (The Journal of Biological Chemistry, 2016).

In general, Ki refers to a dissociation constant, usually derived from enzyme kinetics or from competition with a known ligand. Read a high Ki as a looser hold on the target.

The target of test [1] is T1, mincle minimal CRD (bovine) (Bos taurus, UniProt E1BHM0, I174T).
T1 construct: gene CLEC4E; minimal C-type carbohydrate recognition domain, N-terminally truncated, lacks disulfide 4; E. coli, renatured from inclusion bodies
T1 sequence (E1BHM0 79-211 I174T): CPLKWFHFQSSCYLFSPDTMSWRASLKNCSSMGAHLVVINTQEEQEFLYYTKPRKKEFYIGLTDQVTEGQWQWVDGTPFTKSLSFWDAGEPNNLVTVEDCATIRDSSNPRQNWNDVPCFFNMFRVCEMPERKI
The experiment in a line: competition with […]-mannose-BSA on immobilized CRD. The test is classed as binding.

Test [2] concerns the target T2, mincle extended CRD (bovine) (Bos taurus, UniProt E1BHM0, I174T).
T2 construct: gene CLEC4E; extended CRD from Glu-64 to C terminus with one extra N-terminal Ala, includes disulfide 4; E. coli BL21(DE3) inclusion bodies, renatured, trehalose-Sepharose
T2 sequence (E1BHM0 64-211 I174T): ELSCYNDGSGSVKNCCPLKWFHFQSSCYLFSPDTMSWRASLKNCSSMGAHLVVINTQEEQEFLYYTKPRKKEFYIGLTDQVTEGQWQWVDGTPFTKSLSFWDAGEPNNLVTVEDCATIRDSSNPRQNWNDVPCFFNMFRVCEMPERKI
The experiment in a line: X-ray crystallography, […] Å. The settings on record: pH 5.6 reservoir; primary sugar-binding site, conserved Ca2+; second substituent not visible.

Test [3] addresses T2, mincle extended CRD (bovine). The test is described as follows: X-ray crystallography, […] Å. As to conditions: pH 5.5 reservoir; primary sugar-binding site, conserved Ca2+.
For test [4], the target named is T1, mincle minimal CRD (bovine). The test is described as follows: X-ray crystallography, […] Å. The settings on record: pH 5.6; primary sugar-binding site, conserved Ca2+; acyl chain only partly visible.

`CCCCCC(=O)OC[C@H]1O[C@H](O[C@H]2O[C@H](COC(=O)CCCCC)[C@@H](O)[C@H](O)[C@H]2O)[C@H](O)[C@@H](O)[C@@H]1O` [Dihexanoate] had a Ki in test [1] of 8.2 ± 0.3 µM. `CC(C)C(=O)OC[C@H]1O[C@H](O[C@H]2O[C@H](COC(=O)C(C)C)[C@@H](O)[C@H](O)[C@H]2O)[C@H](O)[C@@H](O)[C@@H]1O` [Diisobutyrate]: the Ki in test [1] is 370 ± 40 µM.

`CCCCC(=O)OC[C@H]1O[C@H](O[C@H]2O[C@H](COC(=O)CCCC)[C@@H](O)[C@H](O)[C@H]2O)[C@H](O)[C@@H](O)[C@@H]1O` [Divalerate] had a Ki in test [1] of 59 ± 2 µM. The same measure, in the same setting: under `CCCCCCCCCC(=O)OC[C@H]1O[C@H](O[C@H]2O[C@H](CO)[C@@H](O)[C@H](O)[C@H]2O)[C@H](O)[C@@H](O)[C@@H]1O` [Monodecanoate] stands 5.1 ± 0.6 µM; under `CCCCCCCCCCCC(=O)OC[C@H]1O[C@H](O[C@H]2O[C@H](CO)[C@@H](O)[C@H](O)[C@H]2O)[C@H](O)[C@@H](O)[C@@H]1O` [Monododecanoate], 3.1 ± 0.5 µM.

Compound `CCCCCCC(=O)OC[C@H]1O[C@H](O[C@H]2O[C@H](CO)[C@@H](O)[C@H](O)[C@H]2O)[C@H](O)[C@@H](O)[C@@H]1O` [Monoheptanoate] returned a Ki in test [1] of 137 ± 18 µM. This Ki lies about 44-fold higher than the previous one. In the case of `COc1cccc(C(=O)OC[C@H]2O[C@H](O[C@H]3O[C@H](COC(=O)c4cccc(OC)c4OC)[C@@H](O)[C@H](O)[C@H]3O)[C@H](O)[C@@H](O)[C@@H]2O)c1OC` [brartemicin analog], the “X-ray crystallography, 1.80 Å” value in test [2] is on record as “The structure of mincle bound to a synthetic analog of brartemicin was also examined”. Take `Cc1cc(O)cc(O)c1C(=O)OC[C@H]1O[C@H](O[C@H]2O[C@H](COC(=O)c3c(C)cc(O)cc3O)[C@@H](O)[C@H](O)[C@H]2O)[C@H](O)[C@@H](O)[C@@H]1O` [brartemicin]: in test [3], the “X-ray crystallography, 2.20 Å” value is on record as “structures of the extended CRD bound to either natural brartemicin or a synthetic analog”. Regarding `CCCC(=O)OC[C@H]1O[C@H](O[C@H]2O[C@H](CO)[C@@H](O)[C@H](O)[C@H]2O)[C@H](O)[C@@H](O)[C@@H]1O` [trehalose monobutyrate], in test [4], the “X-ray crystallography, 2.10 Å” value was “Co-crystals of trehalose monobutyrate and the CRD of mincle were examined”.
